Measured values: patent publication US5004758A, “Water soluble camptothecin analogs useful for inhibiting the growth of animal tumor cells” (priority 1988, dated 1991)
Where “and” joins values, the source holds several entries; their conditions need not be identical. Identical values can stand only once. Counter-ions that a name gives are not always drawn. Like-named read-outs stand apart in the source and are kept apart here.

What was measured:
ip B16 melanoma = settings: mouse, in vivo
Description: (§2) Tumors used in these studies--P388 leukemia and its doxorbicin--and mitoxanrone-resistant sublines, L1210 leukemia, B16 melanoma, B16 melanoma/F10 subline, M5076 sarcoma and colon carcinoma 26--are maintained by serial transplantation in syngeneic strains of mice. For the leukemias, these tumors are maintained in DBA/2 mice. The M5076 sarcoma, the B16 melanoma and its F10 subline are maintained in C57B1/6 mice and the colon sarcinoma 26 is maintained in BALB/c mice. The leukemias and the M5076 sarcoma are serially transplanted i.p. as ascites cell suspensions while the B16 melanoma lines and the colon carcinoma 26 are serially transplanted as s.c. solid tumors.
(§3) For therapeutic trials, tumors are aseptically removed from donor mice and prepared as suspensions for implantation ip into test animals. The test animals for the colon carcinoma 26 are female BALB/c mice (20-25 gm). The test animals for the other tumor models are syngeneic female F1 hybrid B6D2F1 mice (C57B1/6 x DBA/2). The inoculum level varies with the type of tumor: P388 leukemia is inoculated at 10^6 cells per mouse, L1210 leukemia at 10^5 or 10^6 cells per mouse, M5076 sarcoma at 5×10^6 cells per mouse. For implantation of the B16 melanoma lines and the colon carcinoma 26, s.c. tumors from donor mice are minced and homogenized in loose fitting teflon glass homogenizer to give a tumor brei. The inoculum levels are 0.5 ml of a 10 percent (w:v) brei of the B16 melanoma lines and 0.5 ml of a 5 percent (w:v) brei of colon carcinoma 26. After tumor inoculation, mice randomized to treatment groups comprised of 6-8 mice each. In each experiment, there are three groups of untreated control mice. Drugs are dissolved or suspended in appropriate aqueous vehicles and given by a variety of routes and schedules of administration over a range of dose levels. Animals are housed in shoebox cages and are monitored daily for mortality for 30 (L1210), 45 (P388) or 60 (B16, M5076, colon 26) days.

[1] = tested on: sc Madison lung carcinoma; experiment: sc-implanted Madison lung carcinoma in mice; type: in vivo, mouse
Description: (§1) The inoculum varies with the tumor.

ip P388 leukemia = settings: mouse, in vivo, ip
Procedure: (§4) Increase in lifespan (ILS) is based on median survival time of groups of 6 mice. Net tumor cell kill (NCK) is calculated from median survival time by standard methods, since survival time is a linear function of the log tumor cell burden.
Animals were implanted ip with 10^6 cells. Increase in lifespan (ILS) is based on median survival time of groups of 6 mice relative to untreated controls. Long-term survivors were tumor-free on Day 45.
as §2, §3

in vivo [2] = settings: mouse, ip
Description: as §2, §3

in vivo [3] = settings: mouse, ip; remark: listed apart in the source
Description: Tumors used in these studies P388 leukemia, L1210 leukemia and Lewis lung carcinoma--are maintained by serial transplantation in syngeneic strains of mice, DBA/2 for the leukemias and C57B1/6 for Lewis lung carcinoma. The leukemias are serially transplanted i.p. as ascites cell suspensions while the Lewis lung carcinoma is serially transplanted as a s.c. solid tumor.
For therapeutic trials, tumors were aseptically removed from donor mice and prepared as suspensions for implantation into test animals which for each tumor are syngeneic female F1 hybrid B6D2F1 mice (C57B1/6×DBA/2). The inoculum level varies with the type of tumor: P388 leukemia is inoculated at 10^6 cells per mouse, L1210 leukemia at 10^5 or 10^6 cells per mouse, and Lewis lung carcinoma at 0.25 ml of a 10 percent (w:v) brei. […] After tumor inoculation, mice are randomized to treatment groups of 6 to 8 mice each. In each experiment, there are three groups of untreated control mice.
Drugs are dissolved or suspended in appropriate aqueous vehicles and given i.p. or i.v. on various treatment schedules over a range of dosage levels. Animals are housed in shoebox cages and monitored daily for mortality for 30 (L1210), 45 (P388) or 60 (Lewis lung) days.

P388/Mitoxantrone = experiment: ip P388/Mitoxantrone multidrug resistant subline in mice; settings: for ILS / NCK (net tumor cell kill): P388/Mitoxantrone, ip, Days 1 and 5
Procedure: as §4
For the leukemias, these tumors are maintained in DBA/2 mice. […] The leukemias and the M5076 sarcoma are serially transplanted i.p. as ascites cell suspensions while the B16 melanoma lines and the colon carcinoma 26 are serially transplanted as s.c. solid tumors.
For therapeutic trials, tumors are aseptically removed from donor mice and prepared as suspensions for implantation ip into test animals. […] The test animals for the other tumor models are syngeneic female F1 hybrid B6D2F1 mice (C57B1/6 x DBA/2). The inoculum level varies with the type of tumor: P388 leukemia is inoculated at 10^6 cells per mouse, L1210 leukemia at 10^5 or 10^6 cells per mouse, M5076 sarcoma at 5×10^6 cells per mouse. […] After tumor inoculation, mice randomized to treatment groups comprised of 6-8 mice each. In each experiment, there are three groups of untreated control mice. Drugs are dissolved or suspended in appropriate aqueous vehicles and given by a variety of routes and schedules of administration over a range of dose levels. Animals are housed in shoebox cages and are monitored daily for mortality for 30 (L1210), 45 (P388) or 60 (B16, M5076, colon 26) days.

L1210 leukemia cells = experiment: cells; type: cell-based, mouse; settings: Mus musculus, L1210, read-out: In Vitro Activity IC50
Procedure: Cells were exposed continuously upon cloning into medium containing 0.2 percent Noble agar. After incubation at 37° C. in a CO2 incubator for 3 days, colonies were stained with viable cell specific formazan stain and, 24 hours later, were enumerated by a colony counter (Biotran II, New Brunswick Scientific Co., Edison, N.J.) adjusted to identify colonies of more than 50 cells. The concentration which reduced cloning efficiency by 50 percent IC50) was determined by interpolation.

sc Lewis lung carcinoma = type: in vivo, mouse; settings: mouse, in vivo
Description: as §1

[4] = tested on: sc colon adenocarcinoma 51; type: in vivo, mouse; settings: for Tumor growth inhibition (TGI) / Mice without Palpable Tumors: sc Colon 51
Description: as §1

ip colon carcinoma 26 = experiment: ip-implanted colon carcinoma 26 in mice; type: in vivo, mouse; settings: ip Colon 26, B/ip (Days 1, 5, 9 and 13)
Description: as §2, §3

CC[C@@]1(O)C(=O)OCc2c1cc1n(c2=O)Cc2cc3c(CN(C)C)c(O)ccc3nc2-1 [Compound No. 1S, (20 S) 9-Dimethylaminomethyl-10-hydroxycamptothecin Acetate Salt]
ILS (ip B16 melanoma): 130 | Increase in Lifespan (ILS) or Inhibition of Tumor Growth (TGI) (ip B16 melanoma; ip): 152 % ILS | Increase in lifespan (ILS) (ip B16 melanoma; ip, 3.2 mg/kg): 43% | Increase in lifespan (ILS) (ip B16 melanoma; ip, 5.4 mg/kg): 52% | Increase in lifespan (ILS) (ip B16 melanoma; ip, 25 mg/kg): toxic | TGI at the maximally tolerated dose ([1]; mouse, in vivo): 74 | Tumor growth inhibition (TGI) ([1]; mouse, in vivo, 1.5 mg/kg): 0% | Tumor growth inhibition (TGI) ([1]; mouse, in vivo, 3 mg/kg): 0% | Tumor growth inhibition (TGI) ([1]; mouse, in vivo, 6 mg/kg): 21% | Tumor growth inhibition (TGI) ([1]; mouse, in vivo, 12 mg/kg): 0% | Mice without Palpable Tumors ([1]; mouse, in vivo, 24 mg/kg): 1/8 | Increase in Lifespan (ILS) or Inhibition of Tumor Growth (TGI) ([1]; mouse, in vivo, sc): 85 % TGI | inhibition of tumor growth at the maximally tolerated dose ([1]; mouse, in vivo, sc): > 70 | Tumor growth inhibition (TGI) ([1]; sc Madison lung, C/iv (every 3 hours x4 on Days 1, 5 and 9), 0.19 mg/kg/injection): 0% | Tumor growth inhibition (TGI) ([1]; sc Madison lung, C/iv (every 3 hours x4 on Days 1, 5 and 9), 0.38 mg/kg/injection): 41% | Tumor growth inhibition (TGI) ([1]; sc Madison lung, C/iv (every 3 hours x4 on Days 1, 5 and 9), 0.75 mg/kg/injection): 63% | Tumor growth inhibition (TGI) ([1]; sc Madison lung, C/iv (every 3 hours x4 on Days 1, 5 and 9), 1.5 mg/kg/injection): 85% | Tumor growth inhibition (TGI) ([1]; sc Madison lung, C/iv (every 3 hours x4 on Days 1, 5 and 9), 3 mg/kg/injection): toxic | Mice without Palpable Tumors ([1]; sc Madison lung, C/iv, 0.75 mg/kg/injection): 1/8 | Mice without Palpable Tumors ([1]; sc Madison lung, C/iv, 1.5 mg/kg/injection): 3/8 | Increase in Lifespan (ILS) or Inhibition of Tumor Growth (TGI) (ip P388 leukemia): Curative | long term survivors (ip P388 leukemia): 2/6 | Long-Term Survivors (ip P388 leukemia; 15 mg/kg): 4/6 | Increase in lifespan (ILS) (ip P388 leukemia; 30 mg/kg): toxic | MTD (in vivo [2]): 15 mg/kg | MTD (in vivo [3]): 15 mg/kg | ILS (P388/Mitoxantrone; 3.2 mg/kg): 29% | NCK (net tumor cell kill) (P388/Mitoxantrone; 3.2 mg/kg): 0 log | ILS (P388/Mitoxantrone; 5.4 mg/kg): 57% | NCK (net tumor cell kill) (P388/Mitoxantrone; 5.4 mg/kg): 2.1 log | ILS (P388/Mitoxantrone; 9 mg/kg): 79% | NCK (net tumor cell kill) (P388/Mitoxantrone; 9 mg/kg): 3.6 log | NCK (net tumor cell kill) (P388/Mitoxantrone; 15 mg/kg): 5.7 log | ILS (P388/Mitoxantrone; 25 mg/kg): toxic | sensitivity / resistance of subline (P388/Mitoxantrone; P388/mitoxantrone in mice): retained sensitivity | IC50 (L1210 leukemia cells): 56 nM | bioavailability upon oral administration (sc Lewis lung carcinoma): excellent bioavailability upon oral administration | Tumor growth inhibition (TGI) (sc Lewis lung carcinoma; 3.2 mg/kg): 31% | Mice without Palpable Tumors (sc Lewis lung carcinoma; 5.4 mg/kg, Acetate Salt): 2/8 and 4/8 | Tumor growth inhibition (TGI) (sc Lewis lung carcinoma; 5.4 mg/kg, Acetate Salt): 68% and 87% | Tumor growth inhibition (TGI) (sc Lewis lung carcinoma; 5.8 mg/kg): 51% | longterm, tumorfree survivors (sc Lewis lung carcinoma; 9 mg/kg): 2/8 | Tumor growth inhibition (TGI) (sc Lewis lung carcinoma; 9 mg/kg, Acetate Salt): 99% and 93% | Mice without Palpable Tumors (sc Lewis lung carcinoma; 9.7 mg/kg): 2/8 | Tumor growth inhibition (TGI) (sc Lewis lung carcinoma; 9.7 mg/kg): 89% | Tumor growth inhibition (TGI) (sc Lewis lung carcinoma; 15 mg/kg): 95% | longterm, tumorfree survivors (sc Lewis lung carcinoma; 15 mg/kg): 4 of 8 | Mice without Palpable Tumors (sc Lewis lung carcinoma; 15 mg/kg, Acetate Salt): 8/8 and 3/8 | Tumor growth inhibition (TGI) (sc Lewis lung carcinoma; 15 mg/kg, Acetate Salt): 100% | longterm, tumorfree survivors (sc Lewis lung carcinoma; 15 mg/kg, Acetate Salt): 4/8 | Mice without Palpable Tumors (sc Lewis lung carcinoma; 16 mg/kg): 1/8 | Tumor growth inhibition (TGI) (sc Lewis lung carcinoma; 16 mg/kg): 90% | Mice without Palpable Tumors (sc Lewis lung carcinoma; 25 mg/kg): 5/8 | Tumor growth inhibition (TGI) (sc Lewis lung carcinoma; 25 mg/kg): toxic | Mice without Palpable Tumors (sc Lewis lung carcinoma; 27 mg/kg): 4/8 | Tumor growth inhibition (TGI) (sc Lewis lung carcinoma; 45 mg/kg): toxic | Increase in Lifespan (ILS) or Inhibition of Tumor Growth (TGI) (sc Lewis lung carcinoma; sc): Curative | Tumor growth inhibition (TGI) ([4]; G/ip (Days 3, 10, 17 and 24), 3.1 mg/kg/injection): 34% | Tumor growth inhibition (TGI) ([4]; G/ip (Days 3, 10, 17 and 24), 5.2 mg/kg/injection): 36% | Tumor growth inhibition (TGI) ([4]; G/ip (Days 3, 10, 17 and 24), 8.6 mg/kg/injection): 53% | Tumor growth inhibition (TGI) ([4]; G/ip (Days 3, 10, 17 and 24), 14 mg/kg/injection): 76% | Tumor growth inhibition (TGI) ([4]; G/ip (Days 3, 10, 17 and 24), 24 mg/kg/injection): 88% | Mice without Palpable Tumors ([4]; G/ip, 8.6 mg/kg/injection): 1/8 | Mice without Palpable Tumors ([4]; G/ip, 14 mg/kg/injection): 1/8 | Mice without Palpable Tumors ([4]; G/ip, 24 mg/kg/injection): 3/8 | Tumor growth inhibition (TGI) ([4]; H/ip (every 3 hours x4 on Days 3, 10, 14 and 24), 0.47 mg/kg/injection): 37% | Tumor growth inhibition (TGI) ([4]; H/ip (every 3 hours x4 on Days 3, 10, 14 and 24), 0.78 mg/kg/injection): 73% | Tumor growth inhibition (TGI) ([4]; H/ip (every 3 hours x4 on Days 3, 10, 14 and 24), 1.3 mg/kg/injection): 88% | Tumor growth inhibition (TGI) ([4]; H/ip (every 3 hours x4 on Days 3, 10, 14 and 24), 2.2 mg/kg/injection): 89% | Tumor growth inhibition (TGI) ([4]; H/ip (every 3 hours x4 on Days 3, 10, 14 and 24), 3.6 mg/kg/injection): 92% | Mice without Palpable Tumors ([4]; H/ip, 0.78 mg/kg/injection): 1/8 | Mice without Palpable Tumors ([4]; H/ip, 1.3 mg/kg/injection): 3/8 | Mice without Palpable Tumors ([4]; H/ip, 2.2 mg/kg/injection): 4/8 | Mice without Palpable Tumors ([4]; H/ip, 3.6 mg/kg/injection): 4/8 | Increase in Lifespan (ILS) or Inhibition of Tumor Growth (TGI) ([4]; sc Colon Adenocarcinoma 51, optimal doses and optimal schedules): 92 % TGI | Increase in lifespan (ILS) (ip colon carcinoma 26; 5 mg/kg/injection): 5% | Increase in lifespan (ILS) (ip colon carcinoma 26; 10 mg/kg/injection): 25% | Increase in lifespan (ILS) (ip colon carcinoma 26; 20 mg/kg/injection): toxic | Increase in lifespan (ILS) (ip colon carcinoma 26; 40 mg/kg/injection): toxic
